Data published in patent US12486280B2, “CDK inhibitors and uses thereof” (California Institute of Technology, priority 2018, dated 2025).
Converted amounts (≈) assume the structure as drawn. Like-named read-outs stand apart in the source and are kept apart here.

Legend:
CDK4 = CDK4 (Homo sapiens (Human), UniProt P11802); assay: Cdk4 and 6 Enzymatic Inhibition Assay (radiometric 33PanQinase, Ki determination); format: biochemical
Method in brief: (§1)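 Radiometric 33PanQinase assay in 70 mM HEPES-NaOH pH 7.5 with 3 mM MgCl2, 3 mM MnCl2, [γ-33P]-ATP, kinase and substrate; 60 min at 30° C, 1% DMSO final. Ten final concentrations from 2×10^−6 M to 6×10^−11 M; 33Pi incorporation counted by scintillation after H3PO4 stop.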

CDK6 = CDK6 (Homo sapiens (Human), UniProt Q00534); assay: as above; format: biochemical
Method in brief: as §1

[1] = system: drug-sensitive cell lines of Table 2 (EFM-19, MDA-MB-453, T-47D, ZR-75-1, NCI-H441, OVTOKO, NCI-H1838); assay: Cell Line Growth Retardation Assay, sensitive cohort; format: cell-based, human; conditions: for IC50: Homo sapiens, geometric mean over sensitive cohort, 6 days growth, read-out: AvgSensIC50; for Ther Window: average IC50 drug-resistant group divided by average IC50 drug-sensitive group
Method in brief: (§2)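 Cells rested 24 h, then exposed 6 days to compound at 10, 2, 0.4, 0.08, 0.016 and 0.0032 μM; counted by imaging on day 0 and day 6. Growth inhibition as ratio of population doublings versus vehicle; IC50 from curve fits, cohort values as geometric means.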

[2] = system: drug-resistant cell lines of Table 2 (NCI-H1437, OV207, HCC1806, NCI-H2172); assay: Cell Line Growth Retardation Assay, resistant cohort; format: cell-based, human; conditions: Homo sapiens, […], geometric mean over resistant cohort; 6 days growth; read-out: AvgResIC50
Method in brief: as §2

[3] = Compound Solubility Assay (kinetic solubility); format: physicochemical; conditions: kinetic from dmso stock
Description: The relative kinetic solubility of each compound was determined at both low (1.2) and neutral (7.4) pH. Compounds were prepared at 10 mM stocks. […] Compounds were allowed to shake at room temperature for 24 hours in 50 mM phosphate buffer pH 7.4, or in SGF buffer pH 1.2 at 37° C. for 24 hours.

[4] = Caco-2 Assay (Papp A to B); conditions: human, Caco-2, pH 7.4
Description: The degree of bi-directional human intestinal permeability for compounds was estimated using a Caco-2 cell permeability assay. Caco-2 cells were seeded onto polyethylene membranes in 96-well plates. The growth medium was refreshed every 4 to 5 days until cells formed a confluent cell monolayer. HBSS with 10 mM HEPES at pH 7.4 was used as the transport buffer. Compounds were tested at 2 μM bi-directionally in duplicate. Digoxin, nadolol and metoprolol were included as standards. Digoxin was tested at 10 μM bi-directionally in duplicate, while nadolol and metoprolol were tested at 2 μM in the A to B direction in duplicate. The final DMSO concentration was adjusted to less than 1% for all experiments. The plate was incubated for 2 hours in a CO2 incubator at 37° C., with 5% CO2 at saturated humidity. After incubation, all wells were mixed with acetonitrile containing an internal standard, and the plate was centrifuged at 4,000 rpm for 10 minutes. 100 μL supernatant was collected from each well and diluted with 100 μL distilled water for LC/MS/MS analysis. Concentrations of test and control compounds in starting solution, donor solution, and receiver solution were quantified by LC/MS/MS, using peak area ratio of analyte/internal standard. The apparent permeability coefficient Papp (cm/s) was calculated using the equation: Papp=(dCr/dt)×Vr/(A×C0) Where dCr/dt is the cumulative concentration of compound in the receiver chamber as a function of time (μM/s); Vr is the solution volume in the receiver chamber (0.075 mL on the apical side, 0.25 mL on the basolateral side); A is the surface area for the transport, which is 0.0804 cm^2 for the area of the monolayer; C0 is the initial concentration in the donor chamber (μM).

[5] = system: CYP isozymes (IC50s averaged over the isozymes); assay: CYP Enzymatic Inhibition Assay in human liver microsomes
Description: Inhibition of various CYP isozymes was measured for each compound using a CYP enzyme inhibition assay in human liver microsomes (HLM). Compounds and standard inhibitors were prepared at a 100× working solutions. Substrates or PBS were added to the corresponding wells followed by addition of compounds, solvent or positive control working solution to corresponding wells. HLMs were added to the pre-warmed (37° C.) plate and mixed with NADPH cofactor for 10 minutes at 37° C. The reaction was terminated by adding 400 μL cold stop solution (200 ng/mL Tolbutamide and 200 ng/mL Labetalol in ACN). The plate was centrifuged at 4,000 rpm for 20 minutes, and supernatant was transferred to 100 μL HPLC water followed by LC/MS/MS analysis.

[6] = Measurement of Compound Metabolic Stability in hepatocytes
Description: The metabolic stability of compounds was determined in hepatocytes from mice and rats. Compounds were diluted to 5 μM in Williams' Medium E from 10 mM stock solutions. 10 μL of each compound was aliquoted into a well of a 96-well plate and reactions were started by aliquoting 40 μL of a 625,000 cells/mL suspension into each well. The plate was incubated at 37° C. with 5% CO2. At each corresponding time point, the reaction was stopped by quenching with ACN containing internal standards (IS) at a 1:3. Plates were shaken at 500 rpm for 10 min, and then centrifuged at 3,220×g for 20 minutes. Supernatants were transferred to another 96-well plate containing a dilution solution. Supernatants were analyzed by LC/MS/MS. Compound half-life was estimated using the following equation:

hERG potassium channels = hERG potassium channels (Homo sapiens (Human), UniProt Q12809); assay: hERG Inhibition Assay (QPatch automated patch clamp, CHO cells); conditions: percent of control current
[7] = Exploratory mouse PK study, single doses PO vs IP; format: in vivo; conditions: single dose 8.3 mg/kg
Description: Untreated samples were collected from vehicle control animals. For plasma preparation, whole blood was collected into EDTA-treated tubes. Cells were removed from plasma by centrifugation for 10 minutes at 1,000-2,000×g using a refrigerated centrifuge. The plasma fraction was removed and stored at −80° C.
In order to determine amount (ng/ml) of compound in peripheral circulation, plasma samples were analyzed by mass spectrometry […]. For this analysis, 20 μL of plasma sample was mixed with two volumes of ice-cold internal standard solution (ISS), and centrifuged at 6,100 g for 30 minutes. ISS contained acetonitrile with 100 ng/mL compound, 50 ng/mL dextromethorphan and 50 ng/mL imipramine. Aliquots of the supernatant was transferred to an autosampler plate and diluted with two volumes of 0.2% formic acid in water. Specific analyte concentrations were determined against a standard curve (10,000-5 ng/ml), and mean concentrations+/−standard deviation were calculated.

[8] = 50 mM phosphate buffer, pH 7.4, aqueous buffer, read-out: KS7
[9] = simulated gastric fluid, kinetic solubility, SGF buffer pH 1.2, 37° C., 24 hours, read-out: KS1

CDK4, sequence (P11802 whole entry): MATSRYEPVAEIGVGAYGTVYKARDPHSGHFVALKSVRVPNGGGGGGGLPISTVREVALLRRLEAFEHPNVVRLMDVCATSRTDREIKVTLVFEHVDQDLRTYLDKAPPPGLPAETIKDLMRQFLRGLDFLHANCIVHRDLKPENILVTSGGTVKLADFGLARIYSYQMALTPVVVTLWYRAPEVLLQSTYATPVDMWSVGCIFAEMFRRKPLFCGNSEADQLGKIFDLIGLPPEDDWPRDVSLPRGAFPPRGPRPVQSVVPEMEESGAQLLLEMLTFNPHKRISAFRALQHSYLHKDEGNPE
CDK4, sequence (P24385 whole entry partner): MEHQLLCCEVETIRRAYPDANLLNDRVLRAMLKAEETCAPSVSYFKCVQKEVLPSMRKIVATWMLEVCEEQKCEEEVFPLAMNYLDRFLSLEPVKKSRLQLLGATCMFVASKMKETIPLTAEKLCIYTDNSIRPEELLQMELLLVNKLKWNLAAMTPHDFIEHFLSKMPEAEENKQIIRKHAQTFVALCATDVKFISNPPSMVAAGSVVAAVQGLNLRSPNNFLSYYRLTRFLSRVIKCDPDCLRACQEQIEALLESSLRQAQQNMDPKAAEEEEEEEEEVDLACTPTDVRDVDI
hERG potassium channels, sequence (Q12809 whole entry): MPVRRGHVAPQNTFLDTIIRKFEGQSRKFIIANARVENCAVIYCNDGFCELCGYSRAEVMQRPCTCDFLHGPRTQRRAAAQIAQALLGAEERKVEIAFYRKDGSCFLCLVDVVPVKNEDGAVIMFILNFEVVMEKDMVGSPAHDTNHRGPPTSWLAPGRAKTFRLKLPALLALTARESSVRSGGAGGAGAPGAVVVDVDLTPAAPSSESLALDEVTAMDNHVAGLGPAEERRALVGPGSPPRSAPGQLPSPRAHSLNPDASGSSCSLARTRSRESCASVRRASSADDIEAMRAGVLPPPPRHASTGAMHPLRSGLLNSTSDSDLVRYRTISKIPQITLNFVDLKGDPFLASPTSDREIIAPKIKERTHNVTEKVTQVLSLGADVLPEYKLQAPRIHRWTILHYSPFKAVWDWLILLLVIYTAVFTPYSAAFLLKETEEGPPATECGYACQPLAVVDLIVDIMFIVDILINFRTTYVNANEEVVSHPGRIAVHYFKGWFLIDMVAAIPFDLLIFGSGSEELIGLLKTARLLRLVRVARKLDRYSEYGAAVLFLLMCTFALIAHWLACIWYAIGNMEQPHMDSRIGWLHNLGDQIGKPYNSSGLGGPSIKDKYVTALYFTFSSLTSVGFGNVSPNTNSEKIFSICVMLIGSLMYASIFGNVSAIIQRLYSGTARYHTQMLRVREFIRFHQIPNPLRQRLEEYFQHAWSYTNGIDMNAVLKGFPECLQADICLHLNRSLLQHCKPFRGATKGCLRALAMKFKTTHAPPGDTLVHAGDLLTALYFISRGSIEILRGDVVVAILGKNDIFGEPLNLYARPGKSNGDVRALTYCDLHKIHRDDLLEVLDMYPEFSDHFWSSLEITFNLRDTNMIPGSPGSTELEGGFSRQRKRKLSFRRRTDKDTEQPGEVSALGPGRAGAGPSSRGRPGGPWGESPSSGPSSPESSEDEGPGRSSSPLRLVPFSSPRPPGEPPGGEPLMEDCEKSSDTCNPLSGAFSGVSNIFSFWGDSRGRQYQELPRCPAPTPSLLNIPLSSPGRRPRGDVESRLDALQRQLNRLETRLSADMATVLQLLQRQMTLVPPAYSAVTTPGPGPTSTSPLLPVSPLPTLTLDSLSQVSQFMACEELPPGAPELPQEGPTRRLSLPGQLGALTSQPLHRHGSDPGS
CDK6, sequence (Q00534 whole entry): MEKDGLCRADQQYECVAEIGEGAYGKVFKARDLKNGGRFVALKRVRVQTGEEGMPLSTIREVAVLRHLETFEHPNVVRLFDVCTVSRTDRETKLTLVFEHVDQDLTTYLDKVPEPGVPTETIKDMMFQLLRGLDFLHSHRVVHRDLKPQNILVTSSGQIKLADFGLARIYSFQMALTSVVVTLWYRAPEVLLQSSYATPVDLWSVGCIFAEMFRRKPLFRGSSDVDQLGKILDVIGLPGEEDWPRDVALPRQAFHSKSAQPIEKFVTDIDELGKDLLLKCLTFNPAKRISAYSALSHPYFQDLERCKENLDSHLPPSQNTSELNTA
CDK6, sequence (P24385 whole entry partner): as the sequence (P24385 whole entry partner) above

Ki (CDK4) | Ki (CDK6) | IC50 [1] | IC50 [2] | solubility kinetic at 24 h [3, 8] | solubility kinetic at 24 h [3, 9] | Papp A→B at 2 h, 2 μM [4] | IC50 at 10 min [5] | half-life at 1 μM [6] | Cmax [7] | metabolism [7] | SMILES | Ther Window [1] | hERG (hERG potassium channels)
1.01 nM | 5.17 nM | 90 nM | 460 nM | 1 µM (≈ 0.535 µg/mL) | 193 µM (≈ 103 µg/mL) | 0.04 ×10⁻⁶ cm/s | 30000 nM | 126 min | – | – | CCC[C@@]1(C)CN(Cc2ccc(Nc3ncc(F)c(-c4cc(F)c5nc(C)n(C(C)C)c5c4)n3)nc2)CCN1 [Compound A47, (S)-5-fluoro-4-(4-fluoro-1-isopropyl-2-methyl-1H-benzo[d]imidazol-6-yl)-N-(5-((3-methyl-3-propylpiperazin-1-yl)methyl)pyridin-2-yl)pyrimidin-2-amine] | 4.96 | 21.76%
1.09 nM | 7.46 nM | 150 nM | 890 nM | – | – | – | – | – | high Cmax | rapid metabolism | Cc1nc2c(F)cc(-c3nc(Nc4ccc(CN5CCO[C@](C)(CCO)C5)cn4)ncc3F)cc2n1C(C)C [Compound A49, (R)-2-(4-((6-((5-fluoro-4-(4-fluoro-1-isopropyl-2-methyl-1H-benzo[d]imidazol-6-yl)pyrimidin-2-yl)amino)pyridin-3-yl)methyl)-2-methylmorpholin-2-yl)ethan-1-ol] | 5.76 | –
0.78 nM | 5.32 nM | 70 nM | 730 nM | 1.13 µM (≈ 0.608 µg/mL) | 200 µM (≈ 108 µg/mL) | 3.25 ×10⁻⁶ cm/s | 35000 nM | 17.5 min | – | – | Cc1nc2c(F)cc(-c3nc(Nc4ccc(CN5CCO[C@@](C)(CCO)C5)cn4)ncc3F)cc2n1C(C)C [Compound A50, (S)-2-(4-((6-((5-fluoro-4-(4-fluoro-1-isopropyl-2-methyl-1H-benzo[d]imidazol-6-yl)pyrimidin-2-yl)amino)pyridin-3-yl)methyl)-2-methylmorpholin-2-yl)ethan-1-ol] | 9.87 | 18.96%
1.6 nM | 11.9 nM | 210 nM | 900 nM | – | 196 µM (≈ 113 µg/mL) | 0.11 ×10⁻⁶ cm/s | 20100 nM | 5.4 min | – | – | Cc1nc2c(F)cc(-c3nc(Nc4ccc(CN5CCO[C@](C)(CC(=O)N(C)C)C5)cn4)ncc3F)cc2n1C(C)C [Compound A55, (R)-2-(4-((6-((5-fluoro-4-(4-fluoro-1-isopropyl-2-methyl-1H-benzo[d]imidazol-6-yl)pyrimidin-2-yl)amino)pyridin-3-yl)methyl)-2-methylmorpholin-2-yl)-N,N-dimethylacetamide] | 4.33 | 26.03%
1.46 nM | 10.1 nM | 210 nM | 1000 nM | – | 199 µM (≈ 112 µg/mL) | 0.7 ×10⁻⁶ cm/s | 21200 nM | 3.51 min | – | – | CNC(=O)C[C@]1(C)CN(Cc2ccc(Nc3ncc(F)c(-c4cc(F)c5nc(C)n(C(C)C)c5c4)n3)nc2)CCO1 [Compound A59, (R)-2-(4-((6-((5-fluoro-4-(4-fluoro-1-isopropyl-2-methyl-1H-benzo[d]imidazol-6-yl)pyrimidin-2-yl)amino)pyridin-3-yl)methyl)-2-methylmorpholin-2-yl)-A-methylacetamide] | 4.76 | 25.3%
2.14 nM | 14.5 nM | 270 nM | 1000 nM | 3.12 µM (≈ 1.89 µg/mL) | 186 µM (≈ 113 µg/mL) | 1 ×10⁻⁶ cm/s | 18100 nM | 3.32 min | – | – | Cc1nc2c(F)cc(-c3nc(Nc4ccc(CN5CCO[C@](C)(CC(=O)N6CCCC6)C5)cn4)ncc3F)cc2n1C(C)C [Compound A60, (R)-2-(4-((6-((5-fluoro-4-(4-fluoro-1-isopropyl-2-methyl-1H-benzo[d]imidazol-6-yl)pyrimidin-2-yl)amino)pyridin-3-yl)methyl)-2-methylmorpholin-2-yl)-1-(pyrrolidin-1-yl)ethan-1-one] | 3.70 | 28%

Continued, compound first:

SMILES | Ki (CDK4) | Ki (CDK6) | IC50 [1] | IC50 [2] | solubility kinetic at 24 h [3, 8] | solubility kinetic at 24 h [3, 9] | Papp A→B at 2 h, 2 μM [4] | IC50 at 10 min [5] | half-life at 1 μM [6] | Cmax [7] | metabolism [7] | Ther Window [1] | hERG (hERG potassium channels)
CC(=O)N1CC[C@]2(CN(Cc3ccc(Nc4ncc(F)c(-c5cc(F)c6nc(C)n(C(C)C)c6c5)n4)nc3)CCO2)C1 [Compound A37, (S)-1-(9-((6-((5-fluoro-4-(4-fluoro-1-isopropyl-2-methyl-1H-benzo[d]imidazol-6-yl)pyrimidin-2-yl)amino)pyridin-3-yl)methyl)-6-oxa-2,9-diazaspiro[4.5]decan-2-yl)ethan-1-one] | 1.6 nM | 6.86 nM | 260 nM | 810 nM | 109 µM (≈ 62.9 µg/mL) | 197 µM (≈ 114 µg/mL) | 0.39 ×10⁻⁶ cm/s | 43300 nM | 27 min | – | – | 3.10 | 15.08%
Cc1nc2c(F)cc(-c3nc(Nc4ccc(CN5CCO[C@]6(CCN(C)C6)C5)cn4)ncc3F)cc2n1C(C)C [Compound A38] | 1.47 nM | 7.23 nM | 220 nM | 840 nM | 40.5 µM (≈ 22.2 µg/mL) | 200 µM (≈ 110 µg/mL) | 0.17 ×10⁻⁶ cm/s | 80200 nM | 38.2 min | – | – | 3.81 | 10.65%
Cc1nc2c(F)cc(-c3nc(Nc4ccc(CN5CCN(C)C(C)(C)C5)cn4)ncc3F)cc2n1C(C)C [Compound A43, 5-fluoro-4-(4-fluoro-1-isopropyl-2-methyl-1H-benzo[d]imidazol-6-yl)-N-(5-((3,3,4-trimethylpiperazin-1-yl)methyl)pyridin-2-yl)pyrimidin-2-amine] | 0.77 nM | 4.13 nM | 70 nM | 1000 nM | 8.37 µM (≈ 4.36 µg/mL) | 200 µM (≈ 104 µg/mL) | 0.27 ×10⁻⁶ cm/s | 90600 nM | 24.2 min | – | – | 15.03 | 12.12%
Cc1nc2c(F)cc(-c3nc(Nc4ccc(CN5CCNC(C)(C)C5)cn4)ncc3F)cc2n1C(C)C [Compound A44, N-(5-((3,3-dimethylpiperazin-1-yl)methyl)pyridin-2-yl)-5-fluoro-4-(4-fluoro-1-isopropyl-2-methyl-1H-benzo[d]imidazol-6-yl)pyrimidin-2-amine] | 0.7 nM | 3.04 nM | 90 nM | 960 nM | 6.3 µM (≈ 3.19 µg/mL) | 200 µM (≈ 101 µg/mL) | 0.01 ×10⁻⁶ cm/s | 64200 nM | 81.2 min | – | – | 10.25 | 10.84%
Cc1nc2c(F)cc(-c3nc(Nc4ccc(CN5CC6(C5)CS(=O)(=O)C6)cn4)ncc3F)cc2n1C(C)C [Compound A62, 6-((6-((5-fluoro-4-(4-fluoro-1-isopropyl-2-methyl-1H-benzo[d]imidazol-6-yl)pyrimidin-2-yl)amino)pyridin-3-yl)methyl)-2-thia-6-azaspiro[3.3]heptane 2,2-dioxide] | 0.59 nM | 3.8 nM | 90 nM | 730 nM | 1 µM (≈ 0.54 µg/mL) | 190 µM (≈ 103 µg/mL) | 0.15 ×10⁻⁶ cm/s | 33900 nM | 33.9 min | – | – | 8.11 | 40.8%
